# In patent US12378256B2, “Heterocyclic compound” (Takeda Pharmaceutical Company Limited, priority 2017, dated 2025):
# Target: T1, human M1 receptor (hCHRM1) (Homo sapiens, UniProt P11229)
# T1 construct: expressed in transfected cells; host or cells: CHO-K1
# T1 sequence (P11229 1-460): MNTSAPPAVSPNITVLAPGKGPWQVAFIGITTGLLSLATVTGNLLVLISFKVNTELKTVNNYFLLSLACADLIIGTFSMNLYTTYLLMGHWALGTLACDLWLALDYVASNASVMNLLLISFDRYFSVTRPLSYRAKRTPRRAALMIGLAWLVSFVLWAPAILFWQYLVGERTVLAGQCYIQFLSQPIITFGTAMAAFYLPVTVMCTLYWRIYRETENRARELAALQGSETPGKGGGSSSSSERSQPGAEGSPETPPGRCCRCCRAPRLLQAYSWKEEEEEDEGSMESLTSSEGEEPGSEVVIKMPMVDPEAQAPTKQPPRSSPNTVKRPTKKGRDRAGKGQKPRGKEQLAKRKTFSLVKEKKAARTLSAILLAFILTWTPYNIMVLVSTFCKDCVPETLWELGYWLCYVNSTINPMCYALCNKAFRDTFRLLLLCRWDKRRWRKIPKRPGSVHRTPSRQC
# Test: Measurement of M1 receptor positive allosteric modulator (M1PAM) activity, calcium fluorescence with acetylcholine at EC20
# Format: cell-based
# Conditions: for activity (%) at 10 μM: 10 μM test compound, 100% = 1 μM acetylcholine, 0% = DMSO; for EC50: CHO-K1 cells expressing hCHRM1, acetylcholine at EC20 (final 0.8-1.0 nM), read-out: IP value (inflection point in the concentration-dependent curve)
# Description: Measurement of M1 Receptor Positive Allosteric Modulator (M1PAM) Activity
# The activity of a test compound in the presence of acetylcholine at EC20 concentration (final concentration 0.8-1.0 nM), which affords an action corresponding to about 20% of the maximum activity, was measured as PAM activity. The method is as follows. CHO-K1 cells stably expressing a human M1 receptor (hCHRM1) were plated on a 384-well black clear bottom plate (BD Falcon) at 5,000 cells/well, and cultured in an incubator at 37° C., 5% CO2 for 1 day. The medium in the cell plate was removed, and assay buffer A containing calcium indicator (Recording medium (DOJINDO LABORATORIES), 0.1% BSA (Wako Pure Chemical Industries, Ltd.), 2.5 μg/mL Fluo-4 AM (DOJINDO LABORATORIES), 0.08% Pluronic F127 (DOJINDO LABORATORIES), 1.25 mM probenecid (DOJINDO LABORATORIES)) was added at 30 μL/well. The cells were left standing in the incubator at 37° C., 5% CO2 for 30 min, and further left standing at room temperature for 30 min. A test compound prepared by diluting with assay buffer B (HBSS (Invitrogen), 20 mM HEPES (Invitrogen), 0.1% BSA) containing 3.2-4.0 nM acetylcholine was added at 10 μL/well, and the fluorescence was measured by FDSS/μCELL (Hamamatsu Photonics K.K.) for 1 min every for 1 second. With the definition that the amount of change in the fluorescence on addition of acetylcholine (final concentration 1 μM) is 100% and that on addition of DMSO instead of a test compound is 0%, the activity (%) of the test compound was calculated, and the inflection point in the concentration-dependent curve of the test compound was calculated as IP values.
SMILES,activity (%) at 10 μM,EC50
"O=C(NC1CC(F)(F)CCC1O)c1cc(Cc2ccc(-n3cccn3)cc2)c2c(n1)CCO2 (single isomer, unassigned) [Example 27, N-(trans-5,5-difluoro-2-hydroxycyclohexyl)-7-(4-(1H-pyrazol-1-yl)benzyl)-2,3-dihydrofuro[3,2-b]pyridine-5-carboxamide]",100%,4.5 nM
"O=C(N[C@@H]1CCC(F)(F)C[C@H]1O)c1cc(Cc2ccc(-n3cccn3)cc2)c2c(n1)CCO2 (single isomer, unassigned) [Example 46, N-(trans-4,4-difluoro-2-hydroxycyclohexyl)-7-(4-(1H-pyrazol-1-yl)benzyl)-2,3-dihydrofuro[3,2-b]pyridine-5-carboxamide]",107%,4.3 nM
"Cn1cc(-c2ccc(C(F)c3cc(C(=O)N[C@H]4CCOC[C@@H]4O)nc4ccoc34)cc2)nn1 (single isomer, unassigned) [Example 56, 1,5-anhydro-2,3-dideoxy-3-(((7-(fluoro(4-(1-methyl-1H-1,2,3-triazol-4-yl)phenyl)methyl)furo[3,2-b]pyridin-5-yl)carbonyl)amino)-L-threo-pentitol]",106%,42 nM
"O=C(N[C@H]1COCC[C@@H]1O)c1cc(Cc2ccc(-n3cccn3)cc2)c2c(n1)CCO2 [Example 3, 1,5-anhydro-2,4-dideoxy-2-(((7-(4-(1H-pyrazol-1-yl)benzyl)-2,3-dihydrofuro[3,2-b]pyridin-5-yl)carbonyl)amino)-L-threo-pentitol]",100%,13 nM
"Cn1ccc(-c2ccc(Cc3cc(C(=O)N[C@H]4COCC[C@@H]4O)nc4c3OCC4)cc2)n1 [Example 8, 1,5-anhydro-2,4-dideoxy-2-(((7-(4-(1-methyl-1H-pyrazol-3-yl)benzyl)-2,3-dihydrofuro[3,2-b]pyridin-5-yl)carbonyl)amino)-L-threo-pentitol]",100%,7.9 nM
"Cc1csc(-c2ccc(Cc3cc(C(=O)N[C@H]4CCCC[C@@H]4O)nc4c3OCC4)cc2)n1 [Example 16, N-((1S,2S)-2-hydroxycyclohexyl)-7-(4-(4-methyl-1,3-thiazol-2-yl)benzyl)-2,3-dihydrofuro[3,2-b]pyridine-5-carboxamide]",100%,10 nM
"Cc1ncc(-c2ccc(Cc3cc(C(=O)N[C@H]4CCCC[C@@H]4O)nc4c3OCC4)cc2)s1 [Example 18, N-((1S,2S)-2-hydroxycyclohexyl)-7-(4-(2-methyl-1,3-thiazol-5-yl)benzyl)-2,3-dihydrofuro[3,2-b]pyridine-5-carboxamide]",97%,12 nM
"Cc1nccc(-c2ccc(Cc3cc(C(=O)N[C@H]4CCOC[C@@H]4O)nc4ccoc34)cc2)n1 [Example 49, 1,5-anhydro-2,3-dideoxy-3-(((7-(4-(2-methylpyrimidin-4-yl)benzyl)furo[3,2-b]pyridin-5-yl)carbonyl)amino)-L-threo-pentitol]",104%,2.9 nM
"Cc1cc2nc(C(=O)N[C@H]3CCOC[C@@H]3O)cc(Cc3ccc(-c4cn(C)nn4)cc3)c2o1 [Example 64, 1,5-anhydro-2,3-dideoxy-3-(((2-methyl-7-(4-(1-methyl-1H-1,2,3-triazol-4-yl)benzyl)furo[3,2-b]pyridin-5-yl)carbonyl)amino)-L-threo-pentitol]",109%,2.4 nM
"CNC(=O)c1ccc(Cc2cc(C(=O)N[C@H]3CCOC[C@@H]3O)nc3cc(C)oc23)cc1F [Example 65, 1,5-anhydro-2,3-dideoxy-3-(((7-(3-fluoro-4-(methylcarbamoyl)benzyl)-2-methylfuro[3,2-b]pyridin-5-yl)carbonyl)amino)-L-threo-pentitol]",106%,8.5 nM

# More lines, in order of falling EC50, values ahead:
activity (%) at 10 μM,EC50,SMILES
100%,2.4 nM,"Cn1cc(-c2ccc(Cc3cc(C(=O)N[C@H]4CCOC[C@@H]4O)nc4ccoc34)cn2)nn1 [Example 34, 1,5-anhydro-2,3-dideoxy-3-(((7-((6-(1-methyl-1H-1,2,3-triazol-4-yl)pyridin-3-yl)methyl)furo[3,2-b]pyridin-5-yl)carbonyl)amino)-L-threo-pentitol]"
110%,2.4 nM,"Cc1cc(-c2ccc(Cc3cc(C(=O)N[C@H]4CCOC[C@@H]4O)nc4ccoc34)cc2)cnn1 [Example 43, 1,5-anhydro-2,3-dideoxy-3-(((7-(4-(6-methylpyridazin-4-yl)benzyl)furo[3,2-b]pyridin-5-yl)carbonyl)amino)-L-threo-pentitol]"
101%,2.3 nM,"Cn1ccc(-c2ccc(Cc3cc(C(=O)N[C@H]4CCOC[C@@H]4O)nc4c3OCC4)cc2)n1 [Example 28, 1,5-anhydro-2,3-dideoxy-3-(((7-(4-(1-methyl-1H-pyrazol-3-yl)benzyl)-2,3-dihydrofuro[3,2-b]pyridin-5-yl)carbonyl)amino)-L-threo-pentitol]"
101%,1.8 nM,"Cn1cc(-c2ccc(Cc3cc(C(=O)N[C@H]4CCCC[C@@H]4O)nc4c3OCC4)cc2)nn1 [Example 47, N-((1S,2S)-2-hydroxycyclohexyl)-7-(4-(1-methyl-1H-1,2,3-triazol-4-yl)benzyl)-2,3-dihydrofuro[3,2-b]pyridine-5-carboxamide]"
104%,1.8 nM,"Cn1cc(-c2ccc(Cc3cc(C(=O)N[C@H]4CCCC[C@@H]4O)nc4c3OCC4)cn2)cn1 [Example 61, N-((1S,2S)-2-hydroxycyclohexyl)-7-((6-(1-methyl-1H-pyrazol-4-yl)pyridin-3-yl)methyl)-2,3-dihydrofuro[3,2-b]pyridine-5-carboxamide]"
100%,1.6 nM,"Cn1cc(-c2ccc(Cc3cc(C(=O)N[C@H]4COCC[C@@H]4O)nc4ccoc34)cc2)nn1 [Example 21, 1,5-anhydro-2,4-dideoxy-2-(((7-(4-(1-methyl-1H-1,2,3-triazol-4-yl)benzyl)furo[3,2-b]pyridin-5-yl)carbonyl)amino)-L-threo-pentitol]"
98%,1.6 nM,"Cn1cc(-c2ccc(Cc3cc(C(=O)N[C@H]4CCOC[C@@H]4O)nc4ccoc34)cc2)cn1 [Example 40, 1,5-anhydro-2,3-dideoxy-3-(((7-(4-(1-methyl-1H-pyrazol-4-yl)benzyl)furo[3,2-b]pyridin-5-yl)carbonyl)amino)-L-threo-pentitol]"
104%,1.6 nM,"Cn1cc(-c2ccc(Cc3cc(C(=O)N[C@H]4CCOC[C@@H]4O)nc4c3OCC4)cn2)cn1 [Example 60, 1,5-anhydro-2,3-dideoxy-3-(((7-((6-(1-methyl-1H-pyrazol-4-yl)pyridin-3-yl)methyl)-2,3-dihydrofuro[3,2-b]pyridin-5-yl)carbonyl)amino)-L-threo-pentitol]"
99%,1.5 nM,"Cn1cc(-c2ccc(Cc3cc(C(=O)N[C@H]4CCCC[C@@H]4O)nc4ccoc34)cc2)nn1 [Example 23, N-((1S,2S)-2-hydroxycyclohexyl)-7-(4-(1-methyl-1H-1,2,3-triazol-4-yl)benzyl)furo[3,2-b]pyridine-5-carboxamide]"
99%,1.1 nM,"Cn1cc(-c2ccc(C(F)c3cc(C(=O)N[C@H]4CCCC[C@@H]4O)nc4ccoc34)cc2)nn1 (single isomer, unassigned) [Example 57]"
103%,1.1 nM,"O=C(N[C@H]1CCOC[C@@H]1O)c1cc(Cc2ccc(-n3cccn3)cc2)c2occc2n1 [Example 48, 1,5-anhydro-2,3-dideoxy-3-(((7-(4-(1H-pyrazol-1-yl)benzyl)furo[3,2-b]pyridin-5-yl)carbonyl)amino)-L-threo-pentitol]"
104%,0.88 nM,"Cn1cc(-c2ccc(C(F)c3cc(C(=O)N[C@H]4CCOC[C@@H]4O)nc4ccoc34)cn2)cn1 (single isomer, unassigned) [Example 51, 1,5-anhydro-2,3-dideoxy-3-(((7-(fluoro(6-(1-methyl-1H-pyrazol-4-yl)pyridin-3-yl)methyl)furo[3,2-b]pyridin-5-yl)carbonyl)amino)-L-threo-pentitol]"
